These results are taken from PubChem BioAssay (NCI).

Each structure is given as a SMILES string.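 Cultured in 96-well plates, cells were exposed to test compound for 48 hours across five concentrations. At the TGI there is no net growth.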

Among the test systems are A549 NSCLC; OVCAR-4 ovarian; EKVX NSCLC; NCI-H226 lung; HOP-92 NSCLC; SK-MEL-28 melanoma; NCI-H23 lung; SF-268 CNS; HOP-62 NSCLC.
Common to all, as to experiment: NCI-60 cell line screen, 48 h

As for `CN(C(=O)c1ccc2c(c1)sc1c(=O)n(C)c3ccccc3c12)c1ccccc1`, the TGI in the assay on A549 NSCLC, with OVCAR-4 ovarian, in the assay on EKVX NSCLC, in the assay with NCI-H226 lung, in the assay on HOP-92 NSCLC and in the assay with SK-MEL-28 melanoma was greater than 100 µM each time. In the assay on NCI-H23 lung, this molecule displayed a TGI greater than 100 µM.
Turning to `COc1cccc(/C(Cl)=C(\C=O)c2cccc(OC)c2)c1`, the TGI in the assay with A549 NSCLC is 40.8 µM; in the assay with SF-268 CNS, 21.2 µM; in the assay on OVCAR-4 ovarian, 55.3 µM; with EKVX NSCLC, 38.7 µM; with NCI-H226 lung it was 24.8 µM; in the assay with HOP-92 NSCLC it was 36 µM. The TGI in the assay with SK-MEL-28 melanoma came out at 25.5 µM; in the assay on HOP-62 NSCLC, 30.1 µM; in the assay with NCI-H23 lung it was 22.7 µM.
Consider `O=NN(CCF)C(=O)NC1CC2CCC1C2` (centres undefined), for which the TGI in the assay on A549 NSCLC, with SF-268 CNS, in the assay with OVCAR-4 ovarian, with EKVX NSCLC, in the assay on HOP-92 NSCLC and in the assay with SK-MEL-28 melanoma was greater than 100 µM in each case. The TGI with HOP-62 NSCLC is 97.7 µM; in the assay with NCI-H23 lung it was greater than 100 µM.
`O=C1Nc2cc([N+](=O)[O-])c(Br)cc2C1=O`: the TGI in the assay on A549 NSCLC is greater than 100 µM; with SF-268 CNS, 44.1 µM; in the assay with OVCAR-4 ovarian it was 30.5 µM; in the assay on EKVX NSCLC, 47.4 µM; with NCI-H226 lung, 76.4 µM; with HOP-92 NSCLC, 43.1 µM. In addition, the figures for the TGI in the assay on SK-MEL-28 melanoma, in the assay on HOP-62 NSCLC and in the assay with NCI-H23 lung were 36.3 µM, 75.1 µM and 31.9 µM, respectively.
In the case of `COc1ccc2nc3c(c(NCCCN(C)C)c2c1)CCCC3`, the TGI in the assay on A549 NSCLC amounted to 49.9 µM; in the assay with OVCAR-4 ovarian it was 18.5 µM; with EKVX NSCLC, 40.5 µM; in the assay on NCI-H226 lung, 30.7 µM; in the assay on HOP-92 NSCLC, 21.1 µM; in the assay on SK-MEL-28 melanoma, 30.9 µM. Further, the TGI in the assay on HOP-62 NSCLC came out at 30.9 µM; in the assay with NCI-H23 lung, 31.4 µM.
For `CN(C)/C=N\c1ccnc(=O)[nH]1`, the TGI in the assay with A549 NSCLC, with SF-268 CNS, in the assay with OVCAR-4 ovarian, with EKVX NSCLC, in the assay on NCI-H226 lung and in the assay on HOP-92 NSCLC was greater than 100 µM throughout. In addition, the TGI in the assay on SK-MEL-28 melanoma and in the assay on HOP-62 NSCLC was greater than 100 µM each time.
Consider `COc1cc(C2C(Cl)C(=O)N2NC(=O)c2ccc(NC(C)=O)cc2)ccc1O` (centres undefined), for which the TGI in the assay with A549 NSCLC, in the assay with SF-268 CNS, with OVCAR-4 ovarian, in the assay with EKVX NSCLC, in the assay with NCI-H226 lung and with HOP-92 NSCLC was greater than 100 µM throughout. Moreover, the TGI with SK-MEL-28 melanoma, with HOP-62 NSCLC and in the assay with NCI-H23 lung was greater than 100 µM each time.
Take `Cc1cccc2c1c1ccc3c(c1n2C)C(=O)C=CC3=O`: the TGI came to 37.7 µM in the assay on A549 NSCLC; 36.5 µM in the assay with SF-268 CNS; 24.3 µM in the assay on OVCAR-4 ovarian; 38.2 µM in the assay on EKVX NSCLC; 32.8 µM in the assay on NCI-H226 lung; 4.34 µM with HOP-92 NSCLC. In addition, the TGI amounted to 24.4 µM with SK-MEL-28 melanoma, 37.8 µM in the assay with HOP-62 NSCLC and 29.3 µM in the assay with NCI-H23 lung.
Turning to `CC(=O)NNc1nc(C)c(C(=O)NNC(=O)C(=O)Nc2cccc(C(C)=O)c2)s1`, the TGI was greater than 100 µM in the assay with A549 NSCLC; 54 µM in the assay on SF-268 CNS; 64.3 µM in the assay with OVCAR-4 ovarian; greater than 100 µM in the assay on EKVX NSCLC; 62 µM in the assay with NCI-H226 lung; 90 µM with HOP-92 NSCLC. Moreover, the TGI in the assay on SK-MEL-28 melanoma was 49 µM; in the assay on HOP-62 NSCLC, 68.2 µM; in the assay with NCI-H23 lung it was 35.2 µM.
For the molecule `Cc1ccc(-n2cc(-c3ccc(Cl)cc3)c3c(NN)ncnc32)cc1`, the TGI worked out at 15.3 µM in the assay on A549 NSCLC; 17.8 µM in the assay with SF-268 CNS; 19.2 µM with OVCAR-4 ovarian; 9.99 µM in the assay with EKVX NSCLC; 7.96 µM in the assay on NCI-H226 lung; 9.04 µM in the assay with HOP-92 NSCLC. The results for the TGI in the assay with SK-MEL-28 melanoma, with HOP-62 NSCLC and in the assay on NCI-H23 lung were 18.8 µM, 22.6 µM and 12.5 µM, respectively.
Consider `Cc1cc(NC(=O)C2C3C=CC(O3)C2C(=O)O)no1` (centres undefined), for which the TGI in the assay on A549 NSCLC was greater than 100 µM; in the assay on SF-268 CNS, 51.9 µM; in the assay with OVCAR-4 ovarian it was greater than 100 µM; in the assay with EKVX NSCLC it was greater than 100 µM; in the assay with NCI-H226 lung it was greater than 100 µM; in the assay on HOP-92 NSCLC, greater than 100 µM. Besides, the TGI with SK-MEL-28 melanoma, with HOP-62 NSCLC and with NCI-H23 lung was greater than 100 µM in each case.
With `[O-][n+]1c(CN2CCCCC2)nc2cccc3c2c1-c1ccccc1-3`, the TGI in the assay with A549 NSCLC was 33.1 µM; in the assay with OVCAR-4 ovarian, 77.4 µM; in the assay with EKVX NSCLC, 49.2 µM; in the assay with NCI-H226 lung, 39.8 µM; with HOP-92 NSCLC, 85.6 µM; in the assay with SK-MEL-28 melanoma, greater than 100 µM. Further, the TGI worked out at 48.6 µM in the assay with HOP-62 NSCLC and 48.5 µM in the assay on NCI-H23 lung.
As for `Cc1ccc(S(=O)(=O)[C@@H](Cl)[C@H]2N=C(Cl)NN=C2c2ccccc2)cc1`, the TGI with A549 NSCLC was greater than 100 µM; with SF-268 CNS it was 38.8 µM; in the assay on OVCAR-4 ovarian, 36.6 µM; with EKVX NSCLC, greater than 100 µM; in the assay on NCI-H226 lung, 61 µM; in the assay on HOP-92 NSCLC, 54.3 µM. Moreover, the TGI came out at 36.1 µM in the assay on SK-MEL-28 melanoma, 42.7 µM in the assay on HOP-62 NSCLC and 63.1 µM with NCI-H23 lung.
Turning to `CCN(CC)CCCNC(=O)c1cc2cc(NC(=O)c3cc4cc([N+](=O)[O-])ccc4[nH]3)ccc2[nH]1`, the TGI with A549 NSCLC, in the assay on SF-268 CNS, in the assay with OVCAR-4 ovarian, in the assay with EKVX NSCLC, with NCI-H226 lung and in the assay with HOP-92 NSCLC was greater than 100 µM throughout. In addition, the TGI in the assay with SK-MEL-28 melanoma was greater than 100 µM; with HOP-62 NSCLC it was 93.4 µM; with NCI-H23 lung, greater than 100 µM.
`C[S+](C)CC1OC(n2cnc3c(N)ncnc32)C(O)C1O` (centres undefined): the TGI in the assay with A549 NSCLC, in the assay on SF-268 CNS, in the assay on OVCAR-4 ovarian, in the assay with EKVX NSCLC, in the assay on NCI-H226 lung and in the assay on HOP-92 NSCLC was greater than 225 µM each time. The TGI with SK-MEL-28 melanoma, with HOP-62 NSCLC and in the assay on NCI-H23 lung was greater than 225 µM throughout.
